Experimental data reported in patent US10259846B2, “Bouvardin derivatives and therapeutic uses thereof” (The Regents of the University of Colorado, a body corporate, priority 2012, dated 2019).
Read-outs that look alike come from different tables or passages of the source.

Experiments:
[1] = test system: Det562 Head and Neck cancer cells; test: Exposure-time cell viability assay, Det562; type: cell-based, human; details: IC70 concentration; viability read after 5 days
Description: (§1) The cell growth assays used to measure IC50 and synergy involve leaving the drug on the cells for 5 days. However, this length of time may or may not be necessary to see efficacy. To address this, two Bouvardin derivatives (meta Br-N-29-H RA-VII and mera Cl-N-29-H RA-VII) were exposed to different melanoma and head and neck cells for various amounts of time. Cells were plated at 4,000 cells per well in 96 well plates and allowed to adhere for 24 hrs before adding meta Br-N-29-H RA-VII or meta Cl-N-29-H RA-VII at an IC70 concentration for each cell line. The drug was removed after various times (12 hr, 1 day, 2 days, 3 days, 4 days) by replacement with fresh media. After 5 days, cell viability was determined using CellTiter-Glo® Luminescent Cell Viability Assay (Promega G7570), which measures ATP levels. Bouvardin or BVD at 12 hr exposure was used as a control. […] While the maximal effect of meta Br-N-29-H RA-VII was not reached at the same time for all of the lines, the drug is affecting each cell line to some degree by 24 hrs.

HS294T melanoma cells [2] = test: Exposure-time cell viability assay, HS294T; type: cell-based, human; details: IC70 concentration; viability read after 5 days
Description: as §1

T98G glioma cells = test: Cell growth assay (CellTiter-Glo), T98G glioma cells; type: cell-based; details: for inhibitory effects on cell growth: single agent, 10 μM and 100 μM, 6 days (FIG. 11)
Description: (§2) Two glioma cell lines were used (U87MG and T98G). The growth inhibitory effects of chemical compounds were evaluated using CellTiter-Glo® Luminescent Cell Viability Assay (Promega G7570). The CellTiter-Glo® Reagent lyses cells and generates a luminescent signal proportional to the amount of ATP present. In this assay, 4,000 viable cells were plated in 100 μL of growth medium in 96-well plates (Corning). Following an overnight incubation, drugs were added in varying concentrations and incubated for 6 days. 100 μL of CellTiter-Glo® Reagent was added to each well. Plates were incubated with mixing at room temperature for 30 minutes. Luminescence of each well was measured using an automated plate reader.

rabbit reticulocytes = test: In vitro translation assay (luciferase mRNA); type: biochemical; details: luciferase activity; 15 minutes at 37° C.
Description: In vitro translation assays were performed in rabbit reticulocytes (Promega) according to manufacturer's instruction, in the presence or absence of drug at final concentrations shown. Luciferase mRNA provided in the kit was used at a final concentration of 1 μg/μl. The reaction samples were incubated for 15 minutes at 37° C. and quenched by dilution with water. Luciferase activity was measured using a plate reader Multi-Mode Microplate Reader (Synergy 2 by BioTek) immediately after luciferase substrate addition.

HS294T melanoma cells [3] = test: Clonogenic assay (sulfhorhodamine B), HS294T; type: cell-based, human
Description: HS294T melanoma cells were plated at a low concentration to allow for the formation of single colonies. These cells were then treated with meta Br-N-29-H RA-VII alone, PLX4032 alone and a combination of the two and then processed using the quantitative sulfhorhodamine B assay.

[4] = test system: A375 (higher grade) melanoma cell line; test: Cell growth assay IC50, A375 melanoma cell line; type: cell-based, human
Description: as §2, with “Seven cell lines, lung cancer cell line H157, HNC” for “Two glioma”, “lines Det562 and FaDu, and melanoma cell lines WM35, A375, 1205Lu and HS294T” for “lines”, “studied.” for “used (U87MG and T98G).”, “˜4,000” for “4,000”, “reader. Survival was plotted against drug concentration to compute IC50.” for “reader.”
(§3) The ability of bouvardin and meta Br-N-29-H RA-VII to inhibit the growth of Melanoma cells in culture was studied. […] Both compounds show greater efficacy in higher grade, metastatic melanoma cell lines than in a lower grade melanoma line.

[5] = Combination Index from cell growth assays with targeted agents (FIG. 22); type: cell-based; details: over a range of FA (fraction affected)
Description: The combinations of meta Br-N-29-H RA-VII and three commercially available targeted agents (PLX4032 BRAF inhibitor, TAK-333 MEK inhibitor and PF-0491502 P13K/TOR dual inhibitor) were tested at various drug doses. Combination Index values were computed from cell growth assays as previously described (Gladstone et al., Disease Models and Mechanisms, 2012, PMID: 22344740). The tables show average CI values for the combination of meta Br-N-29-H RA-VII and each targeted agent. FA=‘fraction affected’ or fraction of cells killed, reflecting the drug doses used. The CI values that indicate three modes on drug-drug interaction are indicated in the legend and differentially shaded in the table. CI˜1 denote additive action (un-shaded). CI>1 denote antagonistic action (darker shade).

A375 melanoma cells = test: Exposure-time cell viability assay, A375; type: cell-based, human; details: IC70 concentration; viability read after 5 days
Description: as §1

[6] = test system: FaDu Head and Neck cancer cells; test: Exposure-time cell viability assay, FaDu; type: cell-based, human; details: IC70 concentration; viability read after 5 days
Description: as §1

[7] = test system: WM35 (lower grade, radial phase) melanoma cell line; test: Cell growth assay IC50, WM35 melanoma cell line; type: cell-based, human
Description: as §2, with “Seven cell lines, lung cancer cell line H157, HNC” for “Two glioma”, “lines Det562 and FaDu, and melanoma cell lines WM35, A375, 1205Lu and HS294T” for “lines”, “studied.” for “used (U87MG and T98G).”, “˜4,000” for “4,000”, “reader. Survival was plotted against drug concentration to compute IC50.” for “reader.”
as §3

Melanoma cells = test: Growth inhibition of Melanoma cells in culture, alone and combined; type: cell-based, human
Excerpt: as §3
Synergy is seen in cell lines with a wide range of sensitivity to PLX4032, i.e. both PLX4032-sensitive and PLX4032-resistant lines.

[8] = test system: HS294T metastatic melanoma cells; test: Combination with PLX4032, combination index, HS294T; type: cell-based, human; details: combination with PLX4032, wide range of drug concentrations
Excerpt: The dotted line indicates fraction survival expected if meta Br-N-29-H RA-VII and PLX4032 are act in an additive manner. The observed effect of the combination is […], indicating synergy. This represents a subset of a larger data set that includes the result of a wide range of drug doses. The complete dataset is in FIGS. 16 and 17.
CI of less than 1 indicates synergy, which is seen for a wide range of drug concentrations. […] This illustrates that at doses that show synergy, significant fractions of cells are killed or inhibited from growing.

1205Lu melanoma cells = test: Exposure-time cell viability assay, 1205Lu; type: cell-based, human; details: IC70 concentration; viability read after 5 days
Description: as §1

HS294T melanoma cells [9] = test: Combination with ionizing radiation, combination index, HS294T; type: cell-based, human; details: range of drug doses and radiation
Excerpt: CI values are shown for a range of drug doses and radiation. CI<1 indicates synergy.

U87MG glioma cells = test: Cell growth assay (CellTiter-Glo), U87MG glioma cells; type: cell-based; details: single agent; 10 μM and 100 μM; 6 days (FIG. 10)
Description: as §2

mice = details: cited from earlier work
[10] = test system: human primary fibroblasts; details: published report (Dolma et al., 2003); cited from earlier work
[11] = test system: human primary fibroblasts; test: Bouvardin on primary versus oncogene-transformed human fibroblasts; type: cell-based; details: fibroblasts transformed with more and more oncogenes (FIG. 16)
[12] = combination of meta Br-N-29-H RA-VII and PLX4032

COc1ccc(C[C@H]2C(=O)N[C@@H](C)C(=O)N(C)[C@H]3Cc4ccc(cc4)Oc4cc(c(Br)cc4OC)C[C@H](NC3=O)C(=O)N[C@H](C)C(=O)N[C@@H](C)C(=O)N2C)cc1 [meta Br-N-29-H RA-VII]
exposure time to maximal response [1]: 4 days | response at 12 hr exposure [1]: partial response | exposure time to maximal response (same as 5 day) (HS294T melanoma cells [2]): 3 to 4 days | response at 12 hr exposure (HS294T melanoma cells [2]): partial response | response in cell growth assay (T98G glioma cells; T98G glioma cells (FIG. 12)): dose-dependent response | inhibition of protein translation in in vitro translation assay (rabbit reticulocytes): dose-dependent response | survival compared to untreated cells (HS294T melanoma cells [3]; 20 nM, alone): greater than 90% | predicted survival if the two treatments were additive (HS294T melanoma cells [3]; [12]): 50% | survival compared to untreated cells (HS294T melanoma cells [3]; [12]): less than 20% | IC50 ([4]; Homo sapiens, A-375): 100 nM | interaction (average Combination Index) with PF-0491502 P13K/TOR dual inhibitor [5]: displays synergy | interaction (average Combination Index) with PLX4032 BRAF inhibitor [5]: displays synergy | interaction (average Combination Index) with TAK-333 MEK inhibitor [5]: displays synergy | exposure time to maximal response (same as 5 day) (A375 melanoma cells): 2 to 3 days | response at 12 hr exposure (A375 melanoma cells): partial response | exposure time to maximal response [6]: 4 days | response at 12 hr exposure [6]: no response | IC50 ([7]; Homo sapiens): 1170 nM | times less effective (greater IC50) than bouvardin (Melanoma cells; Melanoma cells): 5 to 10 times | synergy with BRAF inhibitor Vemurafenib (PLX4032) (Melanoma cells; combination, PLX4032-sensitive and PLX4032-resistant lines): synergizes best and over a wide range of meta Br-N-29-H RA-VII doses | interaction with PLX4032 (combination index; CI of less than 1 indicates synergy) [8]: synergize | exposure time to maximal response (same as 5 day) (1205Lu melanoma cells): 4 days | response at 12 hr exposure (1205Lu melanoma cells): partial response | interaction with ionizing radiation (combination index; CI<1 indicates synergy) (HS294T melanoma cells [9]): shows synergy

COc1ccc(C[C@H](NC(=O)[C@H](Cc2ccc(O)cc2)N(C)C(=O)OC(C)(C)C)C(=O)OCc2ccccc2)cc1B(O)O [Compound 1-9]
inhibitory effects on cell growth (T98G glioma cells): potent inhibitory effects | inhibition of protein translation in in vitro translation assay (rabbit reticulocytes): do not appear to inhibit protein translation | inhibitory effects on cell growth (U87MG glioma cells): potent inhibitory effects

COc1cccc2c1C(=O)c1c(O)c3c(c(O)c1C2=O)C[C@@](O)(C(=O)CO)C[C@@H]3O[C@H]1C[C@H](N)[C@H](O)[C@H](C)O1 [doxorubicin]
LD50 (mice): 12.5 mg/kg

COc1ccc(C[C@H](NC(=O)[C@H](Cc2ccc(O)cc2)N(C)C(=O)OC(C)(C)C)C(=O)OCc2ccccc2)cc1B1OC(C)(C)C(C)(C)O1 [Compound 1-8]
inhibitory effects on cell growth (T98G glioma cells): potent inhibitory effects | inhibition of protein translation in in vitro translation assay (rabbit reticulocytes): do not appear to inhibit protein translation | inhibitory effects on cell growth (U87MG glioma cells): potent inhibitory effects

COc1ccc(C[C@H](NC(=O)[C@H](Cc2ccc(O)cc2)N(C)C(=O)OC(C)(C)C)C(=O)OCc2ccccc2)cc1Br [Compound 1-7]
inhibitory effects on cell growth (T98G glioma cells): potent inhibitory effects | inhibition of protein translation in in vitro translation assay (rabbit reticulocytes): do not appear to inhibit protein translation | inhibitory effects on cell growth (U87MG glioma cells): potent inhibitory effects

bouvardin
IC50 in primary human cells versus transformed cells [10]: higher IC50 (lower efficacy) in primary human cells than in transformed cells | IC50 [4]: 12 nM | IC50 [7]: 124 nM | LD50 (mice): 12.4 mg/kg | IC, for bouvardin [11]: decreases as human primary fibroblasts are transformed with more and more oncogenes

CCCS(=O)(=O)Nc1ccc(F)c(C(=O)c2c[nH]c3ncc(-c4ccc(Cl)cc4)cc23)c1F [PLX4032, Vemurafenib, reference compound]
survival compared to untreated cells (HS294T melanoma cells [3]; 500 nM, alone): around 60%
